# Test results published in ChEMBL document CHEMBL1201862, “PubChem BioAssay data set” (2004).
# Activity calls are given as the source filed them.
# Legend:
# [1] = biological target: T1, Mitochondrial peptide methionine sulfoxide reductase (Bos taurus, UniProt P54149); assay type: functional;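 also: absorbance read-out, biochemical high-throughput dose-response screen for MsrA inhibitors, confirmatory; recombinant bovine MsrA coupled to E. coli TrxB with NADPH and selenocystamine; potency is for inhibitors of MsrA activity on DMSO substrate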
# T1 sequence (P54149 whole entry): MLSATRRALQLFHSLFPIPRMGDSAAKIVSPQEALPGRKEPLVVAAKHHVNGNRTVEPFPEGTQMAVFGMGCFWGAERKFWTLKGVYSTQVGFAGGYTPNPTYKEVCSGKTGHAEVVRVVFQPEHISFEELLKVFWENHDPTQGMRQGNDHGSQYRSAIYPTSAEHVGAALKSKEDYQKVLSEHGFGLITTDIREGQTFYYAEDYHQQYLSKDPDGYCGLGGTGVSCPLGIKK
# [2] = biological target: T2, Sentrin-specific protease 1 (Homo sapiens, UniProt Q9P0U3); assay: Dose response confirmation of small molecule inhibitors of the catalytic domain of the SUMO protease, SENP1 in a FRET assay.; assay type: functional; conditions: read-out: IC50_Mean
# T2 sequence (Q9P0U3 whole entry): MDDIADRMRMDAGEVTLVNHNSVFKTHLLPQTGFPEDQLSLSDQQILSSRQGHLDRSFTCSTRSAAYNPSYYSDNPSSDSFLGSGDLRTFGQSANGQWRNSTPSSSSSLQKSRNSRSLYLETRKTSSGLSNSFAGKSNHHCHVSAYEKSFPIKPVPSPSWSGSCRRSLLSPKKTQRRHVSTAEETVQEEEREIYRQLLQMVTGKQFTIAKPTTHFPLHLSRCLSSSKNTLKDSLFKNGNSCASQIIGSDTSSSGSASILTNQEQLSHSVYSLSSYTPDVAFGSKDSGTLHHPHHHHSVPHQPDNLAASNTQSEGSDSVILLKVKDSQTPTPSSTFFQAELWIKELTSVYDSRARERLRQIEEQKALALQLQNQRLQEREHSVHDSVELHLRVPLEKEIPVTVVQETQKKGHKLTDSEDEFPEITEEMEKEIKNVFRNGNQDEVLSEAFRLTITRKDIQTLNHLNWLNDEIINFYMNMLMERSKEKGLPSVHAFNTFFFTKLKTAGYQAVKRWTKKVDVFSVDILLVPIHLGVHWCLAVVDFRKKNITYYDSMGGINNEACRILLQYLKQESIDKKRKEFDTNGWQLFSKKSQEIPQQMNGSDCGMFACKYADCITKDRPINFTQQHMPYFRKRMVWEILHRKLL
# [3] = biological target: T2, Sentrin-specific protease 1; assay: SENP1 catalytic domain blockers, concentration series – biochemical, kinetic FRET, dose response (AID 651697); assay type: functional; conditions: read-out: IC50_Mean
# CHO-K1 = assay: (§1) Counterscreen for antagonists of the orexin 1 receptor (OX1R; HCRTR1): Homogeneous time resolved fluorescence (HTRF)-based cell-based dose response assay to identify antagonists of the parental CHO-K1 cell line. [Related pubchem assays (depositor defined):AID434989, AID435008, AID463079, AID485270, AID492963, AID492964, AID492965, AID493232, AID504699, AID504701]; assay type: functional; conditions: Cricetulus griseus
# [4] = biological target: T3, Orexin/Hypocretin receptor type 1 (Homo sapiens, UniProt O43613); assay: (§2) Fluorescence-based cell-based high throughput dose response assay for antagonists of the orexin 1 receptor (OX1R; HCRTR1). [Related pubchem assays (depositor defined):AID434989, AID435008, AID463079, AID485270, AID492963, AID492964, AID492965, AID493232, AID504717, AID504718]; assay type: functional
# T3 sequence (O43613 whole entry): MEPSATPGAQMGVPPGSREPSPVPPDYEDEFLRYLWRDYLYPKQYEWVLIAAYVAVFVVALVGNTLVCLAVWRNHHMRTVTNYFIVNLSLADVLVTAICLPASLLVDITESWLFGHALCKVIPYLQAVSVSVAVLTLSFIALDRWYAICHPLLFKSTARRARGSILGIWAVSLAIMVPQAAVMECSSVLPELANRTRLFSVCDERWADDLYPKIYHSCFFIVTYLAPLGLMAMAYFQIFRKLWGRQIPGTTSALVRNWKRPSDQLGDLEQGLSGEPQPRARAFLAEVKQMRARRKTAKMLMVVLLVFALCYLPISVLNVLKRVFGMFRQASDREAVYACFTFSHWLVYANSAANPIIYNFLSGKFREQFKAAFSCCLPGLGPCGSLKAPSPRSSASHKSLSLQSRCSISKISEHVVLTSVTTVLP
# [5] = as §1, with “Fluorescence-based” for “Homogeneous time resolved fluorescence (HTRF)-based”, “cell-based high throughput” for “cell-based”, “CHO” for “CHO-K1”; assay type: functional
# [6] = biological target: T4, Endoribonuclease toxin MazF (Escherichia coli K-12, UniProt P0AE70); assay: substrate-only fluorescence increase artefacts – biochemical, single-stranded RNase substrate, counter-screen for MazEF activator project, dose response (AID 588502); assay type: functional
# T4 sequence (P0AE70 whole entry): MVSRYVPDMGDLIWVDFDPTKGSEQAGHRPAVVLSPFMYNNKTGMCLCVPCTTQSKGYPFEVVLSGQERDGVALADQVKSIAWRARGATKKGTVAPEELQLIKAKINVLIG
# Orexin receptor type 2 [7] = biological target: T5, Orexin receptor type 2 (Homo sapiens, UniProt O43614); assay: Counterscreen assay for antagonists of the orexin 1 receptor (OX1R; HCRTR1): Fluorescence-based cell-based dose response assay for antagonists of the orexin 2 receptor (OX2R; HCRTR2), run by assay provider.; assay type: functional
# T5 sequence (O43614 whole entry): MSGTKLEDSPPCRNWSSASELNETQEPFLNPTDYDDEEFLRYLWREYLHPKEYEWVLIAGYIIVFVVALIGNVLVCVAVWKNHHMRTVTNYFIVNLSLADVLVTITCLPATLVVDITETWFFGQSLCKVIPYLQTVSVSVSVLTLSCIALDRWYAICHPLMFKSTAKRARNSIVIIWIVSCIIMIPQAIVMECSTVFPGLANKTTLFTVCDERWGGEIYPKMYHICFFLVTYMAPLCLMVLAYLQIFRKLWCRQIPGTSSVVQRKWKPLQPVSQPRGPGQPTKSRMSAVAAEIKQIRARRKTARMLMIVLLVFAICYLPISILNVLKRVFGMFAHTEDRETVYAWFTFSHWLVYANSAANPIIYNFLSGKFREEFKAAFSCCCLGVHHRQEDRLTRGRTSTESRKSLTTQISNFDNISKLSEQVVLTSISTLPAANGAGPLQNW
# [8] = viability of uninfected HEp-2 cells – cell-based, HTS, cytotoxicity control for RSV inhibitor project, dose response (AID 2410); assay type: functional; conditions: human respiratory syncytial virus
# [9] = biological target: T3, Orexin/Hypocretin receptor type 1; assay: as §2, with “Homogeneous Time Resolved Fluorescence (HTRF)-based” for “Fluorescence-based”; assay type: functional
# [10] = biological target: T4, Endoribonuclease toxin MazF; assay: activation of MazEF endoribonuclease cleavage – biochemical, fluorescence, single-stranded RNA substrate, uHTS hits, dose response (AID 588481); assay type: functional
# Orexin receptor type 2 [11] = biological target: T5, Orexin receptor type 2; assay: Counterscreen assay for antagonists of the orexin 1 receptor (OX1R; HCRTR1): Homogeneous Time Resolved Fluorescence (HTRF)-based cell-based dose response assay for antagonists of the orexin 2 receptor (OX2R; HCRTR2), run by assay provider.; assay type: functional
# [12] = biological target: T6, DNA repair and recombination protein RAD54-like (Homo sapiens, UniProt Q92698); assay: RAD54 Holliday junction migration blockers – biochemical, fluorescence, cherry-picked samples, dose series, confirmation (AID 651657); assay type: functional
# T6 sequence (Q92698 whole entry): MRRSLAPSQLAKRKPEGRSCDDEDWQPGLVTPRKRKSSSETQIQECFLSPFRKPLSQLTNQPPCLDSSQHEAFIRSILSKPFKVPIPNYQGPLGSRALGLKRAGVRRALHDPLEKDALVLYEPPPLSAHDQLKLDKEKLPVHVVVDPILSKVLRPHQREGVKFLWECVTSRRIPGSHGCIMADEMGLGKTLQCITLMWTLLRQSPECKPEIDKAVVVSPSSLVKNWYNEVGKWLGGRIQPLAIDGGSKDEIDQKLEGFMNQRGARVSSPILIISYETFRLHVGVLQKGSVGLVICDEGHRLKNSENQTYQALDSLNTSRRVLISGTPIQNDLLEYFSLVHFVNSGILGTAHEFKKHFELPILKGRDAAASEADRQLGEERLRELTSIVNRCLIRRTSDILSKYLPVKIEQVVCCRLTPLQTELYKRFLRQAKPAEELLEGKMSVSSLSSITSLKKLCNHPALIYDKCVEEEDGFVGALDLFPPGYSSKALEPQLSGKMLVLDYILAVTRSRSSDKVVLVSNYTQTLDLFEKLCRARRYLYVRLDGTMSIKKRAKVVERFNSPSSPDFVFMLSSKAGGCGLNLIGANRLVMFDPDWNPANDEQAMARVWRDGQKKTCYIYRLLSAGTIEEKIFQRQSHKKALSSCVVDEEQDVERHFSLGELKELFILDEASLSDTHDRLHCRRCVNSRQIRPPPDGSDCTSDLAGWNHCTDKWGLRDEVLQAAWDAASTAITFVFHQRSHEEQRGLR
# [13] = NIH3T3 cell viability loss – ATP luminescence, mouse fibroblasts, counter-screen, dose response (AID 2010); assay type: functional, cell-based;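 also: cells exposed to compound for about 90 hours before reading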
# [14] = Trypanosoma cruzi growth suppression in host cells – NIH3T3 host cells, beta-gal luminescence, confirmation (AID 2044); assay type: functional, cell-based;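 also: intracellular parasites grown in NIH/3T3 mouse fibroblasts as host cells; luminescent beta-galactosidase reporter signal from transgenic T. cruzi replicating inside host cells; inhibitors lower the luminescence signal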
# [15] = biological target: Ras and Rab interactor 1/Tyrosine-protein kinase ABL1 (Homo sapiens, UniProt P00519+Q13671); assay type: functional;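 also: biochemical TR-FRET dose-response test measuring inhibition of binding between Rin1 and Abl proteins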
# [16] = reduction of Shn3 3'UTR-driven luciferase in osteoblasts – cell-based, Clone20 osteoblasts, firefly luciferase, cherry-picked, dose response (AID 624132); assay type: functional;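 also: firefly luciferase luminescence from reporter carrying the Shn3 3'UTR in osteoblasts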
# [17] = loss of viability in HepG2 cells – cell-based, CellTiter-Glo, cherry-picked, cytotoxicity control for Shn3 inhibitor project, dose response (AID 624134); assay type: functional
# [18] = non-specific 3'UTR reporter inhibition in Clone20-Shn3RL – cell-based, Renilla luciferase, cherry-picked, counter-screen for Shn3 inhibitor project, dose response (AID 624133); assay type: functional
# Aminopeptidase N = biological target: T7, Aminopeptidase N (Plasmodium falciparum FcB1/Columbia, UniProt O96935); assay: malaria alanyl aminopeptidase activity blockers – biochemical, fluorogenic H-Leu-NHMec substrate, 1536-well (AID 1445); design: species or system Plasmodium falciparum 3D7, 3D7
# T7 sequence (O96935 whole entry): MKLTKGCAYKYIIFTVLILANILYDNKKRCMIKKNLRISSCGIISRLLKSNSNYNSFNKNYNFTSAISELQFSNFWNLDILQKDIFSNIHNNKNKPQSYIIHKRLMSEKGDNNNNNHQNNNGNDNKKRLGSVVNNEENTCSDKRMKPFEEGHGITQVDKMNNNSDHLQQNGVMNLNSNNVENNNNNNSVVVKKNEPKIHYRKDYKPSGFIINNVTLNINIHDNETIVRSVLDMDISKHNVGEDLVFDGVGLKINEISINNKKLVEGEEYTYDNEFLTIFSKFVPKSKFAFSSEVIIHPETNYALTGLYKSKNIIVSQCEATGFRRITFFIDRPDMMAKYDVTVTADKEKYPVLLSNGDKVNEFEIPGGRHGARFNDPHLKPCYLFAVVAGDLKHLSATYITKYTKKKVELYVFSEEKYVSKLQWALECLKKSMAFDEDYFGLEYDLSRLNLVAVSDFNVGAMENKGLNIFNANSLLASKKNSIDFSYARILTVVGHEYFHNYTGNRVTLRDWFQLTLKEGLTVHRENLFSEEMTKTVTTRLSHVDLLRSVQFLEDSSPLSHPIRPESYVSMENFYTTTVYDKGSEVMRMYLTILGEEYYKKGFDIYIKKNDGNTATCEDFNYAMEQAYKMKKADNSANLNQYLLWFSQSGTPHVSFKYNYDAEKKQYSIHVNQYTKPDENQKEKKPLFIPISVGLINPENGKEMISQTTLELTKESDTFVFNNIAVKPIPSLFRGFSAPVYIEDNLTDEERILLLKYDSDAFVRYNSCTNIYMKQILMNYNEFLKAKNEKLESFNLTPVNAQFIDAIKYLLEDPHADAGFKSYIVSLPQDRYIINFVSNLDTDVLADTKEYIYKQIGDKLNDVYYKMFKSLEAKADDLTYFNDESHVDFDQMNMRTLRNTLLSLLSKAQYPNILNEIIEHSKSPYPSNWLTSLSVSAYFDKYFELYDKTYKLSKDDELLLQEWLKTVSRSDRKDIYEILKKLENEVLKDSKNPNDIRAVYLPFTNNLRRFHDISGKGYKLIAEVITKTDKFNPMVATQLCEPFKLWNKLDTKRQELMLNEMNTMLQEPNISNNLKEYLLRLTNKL
# Vero = assay: cells; assay type: functional, cell-based; conditions: Chlorocebus sabaeus
# Sequence of Ras and Rab interactor 1/Tyrosine-protein kinase ABL1 (P00519 whole entry): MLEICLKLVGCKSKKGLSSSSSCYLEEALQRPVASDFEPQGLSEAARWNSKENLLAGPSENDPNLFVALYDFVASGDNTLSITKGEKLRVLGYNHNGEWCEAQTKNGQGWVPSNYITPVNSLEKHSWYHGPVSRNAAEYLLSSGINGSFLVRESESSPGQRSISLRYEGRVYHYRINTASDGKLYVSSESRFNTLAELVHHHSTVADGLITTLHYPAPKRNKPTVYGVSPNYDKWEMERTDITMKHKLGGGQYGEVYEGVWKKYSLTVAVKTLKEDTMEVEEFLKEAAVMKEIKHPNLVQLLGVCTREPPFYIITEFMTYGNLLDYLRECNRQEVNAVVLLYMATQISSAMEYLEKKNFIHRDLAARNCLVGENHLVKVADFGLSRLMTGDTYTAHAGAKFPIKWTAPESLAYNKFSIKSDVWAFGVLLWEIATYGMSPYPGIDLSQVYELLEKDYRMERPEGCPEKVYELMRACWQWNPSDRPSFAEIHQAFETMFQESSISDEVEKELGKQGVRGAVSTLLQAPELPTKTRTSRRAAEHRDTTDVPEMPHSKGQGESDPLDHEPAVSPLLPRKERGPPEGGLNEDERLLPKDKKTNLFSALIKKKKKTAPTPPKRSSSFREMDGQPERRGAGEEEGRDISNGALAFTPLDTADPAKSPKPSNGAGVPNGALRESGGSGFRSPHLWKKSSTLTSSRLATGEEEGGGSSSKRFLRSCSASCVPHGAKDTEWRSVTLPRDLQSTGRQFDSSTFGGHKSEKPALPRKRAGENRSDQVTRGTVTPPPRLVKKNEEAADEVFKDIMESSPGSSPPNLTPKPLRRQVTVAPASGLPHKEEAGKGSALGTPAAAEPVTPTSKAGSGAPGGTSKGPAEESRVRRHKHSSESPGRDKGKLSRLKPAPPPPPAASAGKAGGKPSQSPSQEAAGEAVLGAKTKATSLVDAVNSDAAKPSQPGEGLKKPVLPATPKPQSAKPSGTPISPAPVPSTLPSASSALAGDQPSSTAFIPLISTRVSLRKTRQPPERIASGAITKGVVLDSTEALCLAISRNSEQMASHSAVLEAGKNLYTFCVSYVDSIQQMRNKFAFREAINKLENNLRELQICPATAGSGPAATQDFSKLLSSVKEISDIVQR
# Sequence of Ras and Rab interactor 1/Tyrosine-protein kinase ABL1 (Q13671 whole entry): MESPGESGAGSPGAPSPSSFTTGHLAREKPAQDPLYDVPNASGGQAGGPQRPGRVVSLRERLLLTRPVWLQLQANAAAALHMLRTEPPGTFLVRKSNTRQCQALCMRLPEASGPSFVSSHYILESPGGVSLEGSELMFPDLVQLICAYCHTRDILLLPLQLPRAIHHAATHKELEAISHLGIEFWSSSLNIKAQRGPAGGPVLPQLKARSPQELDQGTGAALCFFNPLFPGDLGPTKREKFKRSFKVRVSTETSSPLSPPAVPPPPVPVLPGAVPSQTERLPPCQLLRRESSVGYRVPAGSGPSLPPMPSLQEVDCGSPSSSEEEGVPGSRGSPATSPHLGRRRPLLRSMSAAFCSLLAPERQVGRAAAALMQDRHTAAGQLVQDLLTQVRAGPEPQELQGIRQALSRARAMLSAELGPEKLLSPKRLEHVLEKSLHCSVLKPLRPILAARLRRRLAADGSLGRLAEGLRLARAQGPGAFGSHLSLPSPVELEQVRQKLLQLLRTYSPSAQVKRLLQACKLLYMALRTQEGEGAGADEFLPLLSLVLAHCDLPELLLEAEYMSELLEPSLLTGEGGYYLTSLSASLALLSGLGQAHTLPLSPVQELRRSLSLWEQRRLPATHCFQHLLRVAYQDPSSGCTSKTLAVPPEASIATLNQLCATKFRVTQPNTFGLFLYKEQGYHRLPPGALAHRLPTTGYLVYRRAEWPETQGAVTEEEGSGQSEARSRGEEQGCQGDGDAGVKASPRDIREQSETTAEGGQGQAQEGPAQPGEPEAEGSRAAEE
smiles,measurement,setting,value
O=C(NN=Cc1sc(=O)[n-]c1-[n+]1ccc(-c2ccncc2)cc1)c1ccccc1,IC50,[1],155 µM (inactive)
CCN(CC)c1nc2cc(C)ccc2cc1/C=C(\C#N)C(N)=O,IC50,[2],20 µM (inactive)
same,IC50,[3],17.3 µM (active)
Cc1cccc2c3nc4ccccc4nc3n(C)c12,IC50,CHO-K1,> 66.2 µM (inactive)
same,IC50,[4],8.12 µM (active)
same,IC50,[5],> 49.7 µM (inactive)
same,EC50,[6],51.9 µM (inactive)
same,IC50,Orexin receptor type 2 [7],11 µM (inactive)
same,CC50,[8],> 50 µM (active)
same,IC50,[9],1.33 µM (active)
same,EC50,[10],> 99 µM (inactive)
same,IC50,Orexin receptor type 2 [11],5.76 µM (active)
OCCN1CCN(c2ncnc3c2sc2nc(N4CCOCC4)c4c(c23)CCC4)CC1,AC50,[12],11.4 µM (active)
same,EC50,[13],> 60 µM (not active)
same,EC50,[14],0.241 µM (active)
same,IC50,[15],24.2 µM (inactive)
CN(C(=O)c1ccc(NC(=O)Cc2cccc(NC(=O)C3CCN(C(=O)C4CCCCC4)CC3)c2)cc1)C1CC1,IC50,[15],18.9 µM (inactive)
Cn1cnc([N+](=O)[O-])c1S(=O)(=O)Oc1ccccc1,AC50,[16],3.83 µM (active)
same,AC50,[17],42.3 µM (active)
same,IC50,[1],48 µM (inactive)
same,AC50,[18],24.1 µM (active)
O=C(N/N=C(\CC(=O)c1cccs1)C(F)(F)F)c1ccncc1,IC50,[2],10.1 µM (active)
same,IC50,Aminopeptidase N,48.8 µM (active)
same,IC50,Vero,24.8 µM (active)
same,IC50,[3],38 µM (inactive)
